Test systems include UACC-62; NCI-H226; SW-620; SNB-19; SF-268; HCT-15; MDA-N; Malme-3M; UACC-257; OVCAR-4; SN12C; U-251; BT-549; SK-MEL-28; SNB-75; MDA-MB-435; RXF 393; A549; NCI/ADR-RES; OVCAR-5.
Experiment in all cases: inhibition of tumour cell growth, NCI panel, 48 h

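Following 48 hours of exposure in 96-well plates, responses at five concentrations were used to interpolate endpoints linearly. GI50: concentration for 50% inhibition of growth.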 The source made the active and inactive calls. No stated cut-off is given here; in the data, active = GI50 up to about 1.1 µM and inactive = higher.

Results on 7 molecules are retold here after ChEMBL document CHEMBL1201862, “PubChem BioAssay data set” (2004).

For `O=C(CCN1CCCCC1)c1csc2ccccc12`, the GI50 in the assay on UACC-62 is > 100 µM (inactive); in the assay on NCI-H226 it was > 100 µM (inactive); in the assay with SW-620 it was > 100 µM (inactive); with SNB-19 it was > 100 µM (inactive); in the assay on SF-268, > 100 µM (inactive); in the assay on HCT-15, above 100 µM. Besides, the GI50 in the assay with MDA-N, in the assay with Malme-3M, with UACC-257, in the assay on OVCAR-4, in the assay with SN12C and in the assay with U-251 was > 100 µM (inactive) in each case. In addition, the GI50 in the assay with BT-549, with SK-MEL-28, in the assay on SNB-75, with MDA-MB-435, in the assay on RXF 393 and in the assay with A549 was > 100 µM (inactive) each time. The GI50 in the assay with NCI/ADR-RES and in the assay with OVCAR-5 was > 100 µM (inactive) throughout.
Turning to `C1COCCOP2(N3CC3)=NP(N3CC3)(=NP(N3CC3)(N3CC3)=N2)OCCOCCO1` (stereo not given), the GI50 in the assay on UACC-62 was > 100 µM (inactive); in the assay on NCI-H226, > 100 µM (inactive); in the assay on SW-620, > 100 µM (inactive); in the assay with SNB-19, > 100 µM (inactive); in the assay with SF-268, > 100 µM (inactive); in the assay with HCT-15 it was above 100 µM. The GI50 in the assay on MDA-N, with Malme-3M, in the assay on UACC-257, in the assay on OVCAR-4, with SN12C and in the assay on U-251 was > 100 µM (inactive) each time. Moreover, the GI50 in the assay on BT-549, in the assay with SNB-75, with MDA-MB-435, in the assay on RXF 393, with A549 and in the assay with NCI/ADR-RES was > 100 µM (inactive) each time. Besides, in the assay on OVCAR-5, the GI50 was > 100 µM (inactive).
For `COC(=O)c1cc(C#N)[nH]c1-c1ccsc1`, the GI50 in the assay on UACC-62 is > 100 µM (inactive); in the assay on NCI-H226, > 100 µM (inactive); with SW-620, > 100 µM (inactive); with SF-268 it was > 100 µM (inactive); in the assay on HCT-15 it was 70.1 µM; in the assay with MDA-N, > 100 µM (inactive). Besides, the GI50 with Malme-3M is > 100 µM (inactive); with UACC-257 it was 54.3 µM (inactive); in the assay with OVCAR-4, > 100 µM (inactive); in the assay with SN12C, > 100 µM (inactive); with U-251, > 100 µM (inactive); with BT-549 it was 58.7 µM (inactive). Besides, the GI50 in the assay with SK-MEL-28 is > 100 µM (inactive); in the assay on SNB-75, > 100 µM (inactive); in the assay with MDA-MB-435, > 100 µM (inactive); in the assay on RXF 393, 72.4 µM (inactive); in the assay with A549, > 100 µM (inactive); in the assay with NCI/ADR-RES, > 100 µM (inactive). Also, in the assay on OVCAR-5, the GI50 is > 100 µM (inactive).
For `O=C(N/N=C/c1ccc([N+](=O)[O-])cc1)c1cccc2nc3ccccc3nc12`, the GI50 in the assay on UACC-62 is > 100 µM (inactive); in the assay on NCI-H226, > 100 µM (inactive); in the assay with SW-620, > 100 µM (inactive); in the assay on SNB-19, > 55.8 µM (inactive); in the assay with SF-268 it was > 58.9 µM (inactive); in the assay on HCT-15 it was above 55.7 µM. The GI50 in the assay with MDA-N was > 100 µM (inactive); in the assay on Malme-3M, > 100 µM (inactive); in the assay on UACC-257, > 100 µM (inactive); in the assay with OVCAR-4 it was > 100 µM (inactive); in the assay with SN12C, > 100 µM (inactive); with U-251, 41.5 µM (inactive). Moreover, the GI50 in the assay with BT-549 is > 55.8 µM (inactive); with SK-MEL-28, > 100 µM (inactive); in the assay on SNB-75 it was > 100 µM (inactive); with MDA-MB-435, > 100 µM (inactive); in the assay on RXF 393, 33.3 µM (inactive); with A549, 1.24 µM (inactive). Besides, the GI50 with NCI/ADR-RES is > 100 µM (inactive); with OVCAR-5, > 86.1 µM (inactive).
For `OC(C/C(=N\N=C(/CC(O)(C(F)(F)F)C(F)(F)F)c1ccccc1)c1ccccc1)(C(F)(F)F)C(F)(F)F`, the GI50 was > 10 µM (inactive) in the assay with UACC-62; > 10 µM (inactive) with NCI-H226; > 10 µM (inactive) in the assay with SW-620; > 10 µM (inactive) in the assay on SNB-19; > 10 µM (inactive) in the assay with SF-268; above 10 µM with HCT-15. For the same molecule, the GI50 with MDA-N, with Malme-3M, in the assay with UACC-257, in the assay on OVCAR-4, in the assay on SN12C and in the assay on U-251 was > 10 µM (inactive) each time. The GI50 with BT-549 was > 10 µM (inactive); in the assay with SK-MEL-28, > 10 µM (inactive); with SNB-75, > 10 µM (inactive); in the assay with MDA-MB-435, > 10 µM (inactive); with RXF 393, 3.17 µM (inactive); in the assay with A549, > 10 µM (inactive). Besides, the GI50 with NCI/ADR-RES and in the assay with OVCAR-5 was > 10 µM (inactive) each time.
As for `CC(=O)C1=CN=C2C(=O)N(c3ccccc3)N(C)C12C` (stereo not given), the GI50 with UACC-62 is > 100 µM (inactive); with NCI-H226, > 100 µM (inactive); in the assay with SW-620, > 100 µM (inactive); with SNB-19, > 100 µM (inactive); with HCT-15, 69.7 µM; in the assay on MDA-N it was > 100 µM (inactive). Besides, the GI50 with Malme-3M, with UACC-257, with OVCAR-4, with SN12C, in the assay with U-251 and with BT-549 was > 100 µM (inactive) throughout. Besides, the GI50 with SNB-75 is 24.7 µM (inactive); with MDA-MB-435, > 100 µM (inactive); in the assay with RXF 393, > 100 µM (inactive); in the assay with A549 it was > 100 µM (inactive); in the assay with NCI/ADR-RES, 55.1 µM (inactive); in the assay on OVCAR-5, > 100 µM (inactive).
As to `NC(Cc1ccc(S(=O)(=O)O)cc1)C(=O)NC(Cc1ccc(S(=O)(=O)O)cc1)C(=O)O` (stereo not given), the GI50 in the assay with UACC-62 is > 100 µM (inactive); in the assay on NCI-H226, > 100 µM (inactive); in the assay on SW-620, > 100 µM (inactive); with SF-268, > 100 µM (inactive); in the assay on HCT-15, above 100 µM; in the assay with MDA-N it was > 100 µM (inactive). In addition, the GI50 in the assay on Malme-3M, with UACC-257, with OVCAR-4, in the assay with SN12C, in the assay on U-251 and in the assay on BT-549 was > 100 µM (inactive) in each case. For the same molecule, the GI50 in the assay with SK-MEL-28, with SNB-75, in the assay with MDA-MB-435, in the assay on RXF 393, in the assay with A549 and with NCI/ADR-RES was > 100 µM (inactive) in each case. In addition, the GI50 with OVCAR-5 is > 100 µM (inactive).
